Like-named read-outs stand apart in the source and are kept apart here.
Legend:
MRSA = system: MRSA; design: method as in doi:10.1021/jo00128a034, PMID 15104501, doi:10.1016/j.tetlet.2004.04.091, doi:10.1016/j.tetlet.2018.07.055; conditions: cited from earlier work
Candida strains = experiment: Antifungal screen; format: cell-based; conditions: several Candida strains
[1] = Cytotoxicity assay (MTT) in uninfected A549 cells; format: cell-based; conditions: human, means ± SEM of triplicate samples
Description: To test for cell viability, duplicate 96-well plates of uninfected A549 cells were set up in parallel with the RSV antiviral assay. Extracts were diluted and used to treat cells as described above for the RSV antiviral assay. The negative control for cytotoxicity was 2% DMSO while the positive was 2 μM (final concentration) of PDKI inhibitor. After the 24 h incubation period, the cells were processed for an MTT Proliferation Assay (Provost and […] Research) according to the manufacturer's protocol. Absorbance at 570 nm was measured by a microplate luminometer and standardized to control as above. Two percent DMSO and 2 μM PDK1 inhibitor (CalBioChem) were used as negative and positive controls for cell death, respectively. Statistical analysis was performed using GraphPad Prism software version 9.4.1.

RSV = RSV antiviral assay (Renilla luciferase reporter virus rA2-Rluc in A549 cells); format: cell-based, respiratory syncytial virus; conditions: for Selectivity Index: Selectivity index = CC50/IC50; for IC50 / EC50: human respiratory syncytial virus; for EC50: A549, read-out: EC50 against RSV (Table S12)
Description: A549 (CCL-185, ATCC) cells were seeded at 1.6 × 10^4 cells in 100 μL of 5% FBS/1X penicillin–streptomycin/F12 medium per well in 96-well µClear® black plates with a clear bottom (Greiner 655090). The cells were infected with 400 PFU/well of a recombinant RSV encoding Renilla luciferase as an additional transcription unit (rA2-Rluc) in a total volume of 50 µL/well and allowed to adsorb for 1 h. Purified compounds were serially diluted two-fold in triplicate and 50 µL/well of the diluted extracts were added to the infected cells. After further incubation at 37 °C and 5% CO2 for 24 h, the supernatants were removed and cells were lysed using Renilla lysis buffer (Promega). Luciferase activity was measured with the Renilla Luciferase reagent (Promega) and BioTek Synergy Mx microplate luminometer using Gen5 version 2.00.18 software. The RSV antiviral effect for the test samples was determined by normalizing to the DMSO-treated control samples and multiplying by 100 to obtain the percent of control. Statistical analysis was performed using GraphPad Prism software version 9.4.1.

ESKAPE pathogens = experiment: Antibacterial screen; format: cell-based
[2] = system: panel of tumor cell lines; conditions: cited from earlier work
[3] = Stability in solution (NMR / reversed-phase HPLC observation); format: physicochemical; conditions: CDCl3, NMR solvent
Description: While NMR data were collected on purified suberitenone I (6), the signals decreased in intensity while those of a new species grew in intensity. […] Thus, suberitenone J (7) is the oxaspiro-ring-opened isomer, existing in equilibrium with 6. When the two were separated by reversed-phase HPLC, both reverted to an equilibrium mixture of ~3:1 6:7 over 24 h.

HIV gene expression = system: HIV gene expression; design: method as in PMID 27768313; conditions: cited from earlier work
[4] = A549, 24 h, read-out: IC50 (RSV antiviral)
[5] = A549, read-out: IC50 (RSV antiviral, text)

Row | Molecule | CC50 at 24 h [1] | Selectivity Index (RSV) | IC50 (RSV; [4]) | EC50 (RSV) | further results
1 | oxaspirosuberitenone |  |  |  |  | antibacterial activity against MRSA (MRSA): mild antibacterial activity
2 | CC(=O)OC1CC2(C)CC(O)(C3CC(=O)C(C)=CC3O)CCC2C2(C)CCCC(C)(C)C12 (stereo not drawn) [Compound 11, suberitenone B] | 67.6 ± 16.3 µM | 21.1 | 3.2 ± 0.4 µM | 3.5 µM | antifungal activity (Candida strains): inactive; activity against RSV (in words) (RSV): active; IC50 (RSV; [5]): 3.5 µM; antibacterial activity (ESKAPE pathogens): inactive
3 | COC1C(C)C(=O)CC(C2(O)CCC3C(C)(CC(OC(C)=O)C4C(C)(C)CCCC43C)C2)C1O (stereo not drawn) [Compound 5, Suberitenone H] | 51.1 ± 17.5 µM | 4.7 | 10.9 ± 1.8 µM | 10.9 µM | 
4 | isosuberitenone B |  |  |  |  | cytotoxicity against a panel of tumor cell lines [2]: weak cytotoxicity
5 | CC(=O)OC1CC2(C)C=C3C4CC(=O)C(C)(CC4O)C3CC2C2(C)CCCC(C)(C)C12 (stereo not drawn) [Compound 1, Neosuberitenone A] |  |  |  | > 50 µM | viral inhibitory effects (RSV; at 25 µg/mL): did not show any viral inhibitory effects
6 | CC(=O)O[C@@H]1C[C@@]2(C)C(=O)C([C@H]3CC(=O)C(C)=C[C@H]3O)=CCC2[C@@]2(C)CCCC(C)(C)C12 (stereo partly drawn) [Compound 4, Suberitenone G] | 40.7 ± 8.3 µM | 3.7 | 11 ± 1.3 µM | 11 µM | stability in CDCl3 [3]: decomposition was observed
7 | CC(=O)OC1CC2(C)C=C(C3CC(=O)C(C)=CC3O)CCC2C2(C)CCCC(C)(C)C12 (stereo not drawn) [Compound 10, suberitenone A] | 33.3 ± 1.3 µM | 4.3 | 7.8 ± 0.2 µM | 7.9 µM | antifungal activity (Candida strains): inactive; activity against RSV (in words) (RSV): active; IC50 (RSV; [5]): 7.9 µM; antibacterial activity (ESKAPE pathogens): inactive
8 | CC(=O)OC1CC2(C)C(O)C(C3CC(=O)C(C)=CC3O)=CCC2C2(C)CCCC(C)(C)C12 (stereo not drawn) [Compound 3, Suberitenone F] | 36 ± 5.3 µM | 3.7 | 9.8 ± 1.4 µM | 9.8 µM | antifungal activity (Candida strains): inactive; activity against RSV (in words) (RSV): active; antibacterial activity (ESKAPE pathogens): inactive
9 | CC(=O)OC1CC2(C)C(CCC3(C4CC(=O)C(C)=CC4O)OC23)C2(C)CCCC(C)(C)C12 (stereo not drawn) [Compound 2, Suberitenone E] | 87.3 ± 38.1 µM | 4.3 | 20.5 ± 0.7 µM | 20.5 µM | 
10 | 19-episuberitenone B |  |  |  |  | cytotoxicity against a panel of tumor cell lines [2]: weak cytotoxicity
11 | anvilone A |  |  |  |  | HIV gene expression (HIV gene expression): turned on HIV gene expression

— paper PMC9964336, “Neosuberitenone, a New Sesterterpenoid Carbon Skeleton; New Suberitenones; and Bioactivity against Respiratory Syncytial Virus, from the Antarctic Sponge Suberites sp” (Marine Drugs, 2023)
